In brackets after ≈: the same amount, converted by molar mass. One block for each compound: values may come before it. Activity calls are given as the source filed them. The rule behind the calls is not given here.
Columns and labels:
[1] = molecular target: Epidermal growth factor receptor (Mus musculus, UniProt Q01279); experiment: Inhibition of mouse EGFR by liquid scintillation counting
[2] = Inhibition of phosphatidylinositol kinase
[3] = Inhibition of protein kinase C
[4] = Inhibition of protein kinase A
[5] = molecular target: Epidermal growth factor receptor (Homo sapiens, UniProt P00533)
[6] = molecular target: Epidermal growth factor receptor (Mus musculus) (UniProt Q01279); experiment: Inhibition of mouse EGFR using [32P]gammaATP as substrate by competitive Lineweaver-Burke plot
NIH3T3 = experiment: Cytotoxicity against RSV transformed mouse NIH/3T3 cells; format: functional, cell-based
[7] = molecular target: Epidermal growth factor receptor (Mus musculus) (UniProt Q01279); experiment: Inhibition of mouse EGFR using tridecapeptide as substrate by uncompetitive Lineweaver-Burke plot
L1210 = experiment: Cytotoxicity against mouse L1210 cells; format: functional, cell-based
A-431 = experiment: Cytotoxicity against human A431 cells; format: functional, cell-based
P388 = experiment: Cytotoxicity against mouse P388 cells; format: functional, cell-based
[8] = Cytotoxicity against mouse NIH/3T3 cells; format: cell-based; settings: NIH3T3

Epidermal growth factor receptor (Mus musculus, UniProt Q01279), sequence (Q01279 whole entry): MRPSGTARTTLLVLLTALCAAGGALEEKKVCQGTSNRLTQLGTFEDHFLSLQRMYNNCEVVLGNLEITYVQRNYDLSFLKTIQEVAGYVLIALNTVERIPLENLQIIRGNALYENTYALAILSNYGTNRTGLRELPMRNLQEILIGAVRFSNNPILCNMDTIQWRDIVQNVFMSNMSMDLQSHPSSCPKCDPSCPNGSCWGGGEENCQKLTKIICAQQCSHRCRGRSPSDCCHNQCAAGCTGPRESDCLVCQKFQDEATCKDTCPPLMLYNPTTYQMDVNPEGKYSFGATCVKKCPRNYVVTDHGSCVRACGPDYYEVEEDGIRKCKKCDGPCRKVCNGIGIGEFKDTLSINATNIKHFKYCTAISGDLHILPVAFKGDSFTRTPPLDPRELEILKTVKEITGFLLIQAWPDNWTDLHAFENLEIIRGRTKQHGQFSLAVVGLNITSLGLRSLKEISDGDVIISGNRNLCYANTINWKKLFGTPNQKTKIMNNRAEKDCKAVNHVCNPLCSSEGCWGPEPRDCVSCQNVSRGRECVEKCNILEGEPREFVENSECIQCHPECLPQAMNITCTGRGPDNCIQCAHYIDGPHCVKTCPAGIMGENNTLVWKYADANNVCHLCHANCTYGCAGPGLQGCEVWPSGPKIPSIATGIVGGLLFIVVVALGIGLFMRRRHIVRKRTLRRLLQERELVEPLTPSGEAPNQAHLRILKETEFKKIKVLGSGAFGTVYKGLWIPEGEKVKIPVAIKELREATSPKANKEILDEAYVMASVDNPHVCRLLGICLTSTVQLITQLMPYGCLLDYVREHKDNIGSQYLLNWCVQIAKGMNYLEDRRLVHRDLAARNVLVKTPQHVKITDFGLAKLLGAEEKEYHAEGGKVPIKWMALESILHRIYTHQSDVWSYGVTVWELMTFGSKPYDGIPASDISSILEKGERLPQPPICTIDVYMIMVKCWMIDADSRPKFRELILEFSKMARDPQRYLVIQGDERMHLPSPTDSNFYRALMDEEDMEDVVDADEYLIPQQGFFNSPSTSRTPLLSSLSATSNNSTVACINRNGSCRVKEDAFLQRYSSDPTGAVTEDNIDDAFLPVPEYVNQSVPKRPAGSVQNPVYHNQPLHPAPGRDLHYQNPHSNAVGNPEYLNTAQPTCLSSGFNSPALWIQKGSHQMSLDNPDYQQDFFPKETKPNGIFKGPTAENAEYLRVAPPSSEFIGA
Epidermal growth factor receptor (Mus musculus), sequence (Q01279 whole entry): as above
Epidermal growth factor receptor (Homo sapiens, UniProt P00533), sequence (P00533 whole entry): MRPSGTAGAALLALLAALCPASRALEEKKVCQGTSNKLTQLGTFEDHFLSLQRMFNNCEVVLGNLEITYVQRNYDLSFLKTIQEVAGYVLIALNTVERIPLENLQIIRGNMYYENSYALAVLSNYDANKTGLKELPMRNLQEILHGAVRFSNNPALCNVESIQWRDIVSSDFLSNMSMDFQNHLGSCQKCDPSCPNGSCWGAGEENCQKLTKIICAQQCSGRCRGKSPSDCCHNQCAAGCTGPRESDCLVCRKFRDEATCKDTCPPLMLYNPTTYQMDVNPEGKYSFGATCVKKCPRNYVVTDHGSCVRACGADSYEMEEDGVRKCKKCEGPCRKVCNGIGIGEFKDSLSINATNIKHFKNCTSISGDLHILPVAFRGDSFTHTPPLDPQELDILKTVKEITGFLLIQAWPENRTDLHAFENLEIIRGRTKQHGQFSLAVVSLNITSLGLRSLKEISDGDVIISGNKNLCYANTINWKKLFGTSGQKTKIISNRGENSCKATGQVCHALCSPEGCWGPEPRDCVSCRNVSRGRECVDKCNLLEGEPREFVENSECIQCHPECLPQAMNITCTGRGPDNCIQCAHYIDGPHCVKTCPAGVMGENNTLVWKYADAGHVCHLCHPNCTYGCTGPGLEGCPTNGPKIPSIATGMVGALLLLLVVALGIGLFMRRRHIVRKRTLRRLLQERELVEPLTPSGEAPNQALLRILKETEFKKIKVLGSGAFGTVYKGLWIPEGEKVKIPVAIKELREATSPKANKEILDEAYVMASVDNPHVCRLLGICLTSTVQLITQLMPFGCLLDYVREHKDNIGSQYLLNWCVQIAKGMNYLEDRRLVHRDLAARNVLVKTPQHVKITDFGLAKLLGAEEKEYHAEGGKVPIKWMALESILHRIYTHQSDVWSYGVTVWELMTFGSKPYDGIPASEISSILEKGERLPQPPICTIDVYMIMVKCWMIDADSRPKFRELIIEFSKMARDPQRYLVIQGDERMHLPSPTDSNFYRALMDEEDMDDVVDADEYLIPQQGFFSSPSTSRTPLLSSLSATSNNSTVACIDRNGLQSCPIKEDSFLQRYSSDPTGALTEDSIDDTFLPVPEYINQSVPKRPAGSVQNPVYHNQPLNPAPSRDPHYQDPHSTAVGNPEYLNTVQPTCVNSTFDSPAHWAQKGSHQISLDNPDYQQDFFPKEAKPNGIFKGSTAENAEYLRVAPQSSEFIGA

SMILES: O=C(O)c1cc(N(Cc2cc(O)ccc2O)Cc2cc(O)ccc2O)ccc1O
- IC50 [1]: 27.7 nM

SMILES: O=C(O)c1ccc(O)c(N(Cc2ccccc2O)Cc2cc(O)ccc2O)c1
- IC50 [1]: 446 nM

SMILES: O=C(O)c1cc(/N=C\c2cc(O)ccc2O)ccc1O
- IC50 [1]: 2780 nM

SMILES: O=CN/C=C/c1cc(O)ccc1O [ERBSTATIN]
- IC50 [2]: 25 µg/mL (≈ 140 µM)
- IC50 [3]: > 179 µg/mL
- IC50 [1]: 1120 nM
- IC50 [4]: 100 µg/mL (≈ 558 µM)
- IC50 [5]: 1120 nM

SMILES: O=C(O)c1cc(N(Cc2ccccc2O)Cc2cc(O)ccc2O)ccc1O [LAVENDUSTIN A]
- Activity [6]: Active
- IC50 (NIH3T3): 19.5 µg/mL (≈ 51.1 µM)
- IC50 [2]: 6.4 µg/mL (≈ 16.8 µM)
- Activity [7]: Active
- IC50 [3]: > 100 µg/mL
- IC50 [1]: 11.5 nM
- IC50 (L1210): 28 µg/mL (≈ 73.4 µM)
- IC50 (A-431): 26 µg/mL (≈ 68.2 µM)
- IC50 (P388): 21.5 µg/mL (≈ 56.4 µM)
- IC50 [4]: > 100 µg/mL
- IC50 [8]: 22 µg/mL (≈ 57.7 µM)

SMILES: O=C(O)c1cc(N(Cc2ccccc2O)Cc2ccccc2O)ccc1O [LAVENDUSTIN B]
- IC50 [1]: 1340 nM

Continued, values first:

- IC50 [1]: > 653000 nM
SMILES: Nc1cc(C(=O)O)ccc1O

- IC50 [1]: 239000 nM
SMILES: O=Cc1cc(O)ccc1O

- IC50 [1]: 17600 nM
SMILES: Nc1ccc(O)c(C(=O)O)c1 [MESALAMINE]
